Measured values taken from patent US10227344B2, “CK2 inhibitors, compositions and methods thereof” (Polaris Pharmaceuticals, Inc., priority 2016, dated 2019).

Tests used:
LoVo = experiment: Cancer cell panel, cell viability (resazurin): Colon, LoVo; type: cell-based; conditions: Homo sapiens, 72 hours, single agent, read-out: Example 3 IC50
Caov-3 = experiment: Cancer cell panel, cell viability (resazurin): Ovarian, Caov-3; type: cell-based; conditions: Homo sapiens; Caov-3 (Ovarian), 72 hours, single agent; read-out: Example 3 IC50
U87MG = experiment: Cancer cell panel, cell viability (resazurin): Glioblastoma, U87MG; type: cell-based; conditions: Homo sapiens, U-87 MG, 72 hours, single agent, read-out: Example 3 IC50
Experimental: (§1) Cells were plated in 96-well plates and treated for 72 hours with a serially diluted CK2 inhibitor or anti-cancer drug or their combination. The suspension cell lines were treated right after plating, while the adherent cells were allowed to attach overnight prior to the start of the treatment.
(§2) Cell viability was determined by adding resazurin to cell cultures and measuring fluorescence with a plate reader. Relative cell viability was calculated by dividing the cell viability signal from a test sample by that of a non-treated control. […] Bliss Independence and Highest Single Agent models were used to determine if there is synergy, additivity or antagonism between the CK2 inhibitor and an anti-cancer drug.

BT-474 = experiment: Cancer cell panel, cell viability (resazurin): Breast, BT-474; type: cell-based; conditions: Homo sapiens; BT-474 (Breast), 72 hours, single agent; read-out: Example 3 IC50
HL60 = experiment: Cancer cell panel, cell viability (resazurin): Leukemia, HL60; type: cell-based; conditions: Homo sapiens, HL-60, 72 hours, single agent, read-out: Example 3 IC50
Experimental: as §1, §2

RPMI8226 = experiment: Cancer cell panel, cell viability (resazurin): multiple myeloma, RPMI8226; type: cell-based; conditions: Homo sapiens, RPMI-8226, 72 hours, single agent, read-out: Example 3 IC50
BxPC3 = experiment: Cancer cell panel, cell viability (resazurin): Pancreatic, BxPC3; type: cell-based; conditions: Homo sapiens, BXPC-3, 72 hours, single agent, read-out: Example 3 IC50
purified CK2α enzyme = purified CK2α enzyme (Homo sapiens, UniProt P68400); experiment: CK2 Protein Kinase Inhibition Assay (coupled PK/LDH assay); type: biochemical; conditions: CK2 enzyme 25 nM, 100 μM ATP, 37° C., Morrison equation
purified CK2α enzyme, sequence (P68400 whole entry): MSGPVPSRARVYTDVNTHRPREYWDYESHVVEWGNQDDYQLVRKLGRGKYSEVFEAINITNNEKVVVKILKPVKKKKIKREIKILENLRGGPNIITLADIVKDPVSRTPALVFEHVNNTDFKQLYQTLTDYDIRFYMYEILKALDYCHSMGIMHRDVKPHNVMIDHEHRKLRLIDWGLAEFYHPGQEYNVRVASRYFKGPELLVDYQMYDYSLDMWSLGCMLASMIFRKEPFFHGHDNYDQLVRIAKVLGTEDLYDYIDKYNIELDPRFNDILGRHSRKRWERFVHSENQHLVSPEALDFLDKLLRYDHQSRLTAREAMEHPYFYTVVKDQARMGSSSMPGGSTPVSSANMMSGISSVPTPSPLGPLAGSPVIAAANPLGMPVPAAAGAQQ
Procedure, shortened: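 Purified CK2α at 25 nM final, 1.5 mM peptide substrate, 100 μM ATP, pH 8.25 Tris buffer; compounds pre-incubated 10 min at 37° C. ADP coupled via PK/LDH to NADH loss at 340 nm over 30 min, 37° C. Ki from rate versus concentration by Morrison equation, triplicate points.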

U266 = experiment: Cancer cell panel, cell viability (resazurin): multiple myeloma, U266; type: cell-based; conditions: Homo sapiens, U-266, 72 hours, single agent, read-out: Example 3 IC50
Experimental: as §1, §2

A2780 = experiment: Cancer cell panel, cell viability (resazurin): Ovarian, A2780; type: cell-based; conditions: Homo sapiens, 72 hours, single agent, read-out: Example 3 IC50
Experimental: as §1, §2

Ramos = experiment: Cancer cell panel, cell viability (resazurin): Burkitt's Lymphoma, Ramos; type: cell-based; conditions: Homo sapiens, 72 hours, single agent, read-out: Example 3 IC50
K562 = experiment: Cancer cell panel, cell viability (resazurin): Leukemia, K562; type: cell-based; conditions: Homo sapiens, 72 hours, single agent, read-out: Example 3 IC50
DLD-1 = experiment: Cancer cell panel, cell viability (resazurin): Colon, DLD-1; type: cell-based; conditions: Homo sapiens; DLD-1 (Colon), 72 hours, single agent; read-out: Example 3 IC50
Panc-1 = experiment: Cancer cell panel, cell viability (resazurin): Pancreatic, Panc-1; type: cell-based; conditions: Homo sapiens; Panc-1 (Pancreatic), 72 hours, single agent; read-out: Example 3 IC50
Experimental: as §1, §2

LnCap = experiment: Cancer cell panel, cell viability (resazurin): Prostate, LnCap; type: cell-based; conditions: Homo sapiens, 72 hours, single agent, read-out: Example 3 IC50
Experimental: as §1, §2

Raji = experiment: Cancer cell panel, cell viability (resazurin): Burkitt's Lymphoma, Raji; type: cell-based; conditions: Homo sapiens, 72 hours, single agent, read-out: Example 3 IC50
HCT116 = experiment: Cancer cell panel, cell viability (resazurin): Colon, HCT116; type: cell-based; conditions: Homo sapiens, HCT-116, 72 hours, single agent, read-out: Example 3 IC50
MDA-MB-157 = experiment: Cancer cell panel, cell viability (resazurin): Breast, MDA-MB-157; type: cell-based; conditions: Homo sapiens; MDA-MB-157 (Breast), 72 hours, single agent; read-out: Example 3 IC50
A375 = experiment: Cancer cell panel, cell viability (resazurin): Melanoma, A375; type: cell-based; conditions: Homo sapiens, A-375, 72 hours, single agent, read-out: Example 3 IC50
Experimental: as §1, §2

BT-20 = experiment: Cancer cell panel, cell viability (resazurin): Breast, BT-20; type: cell-based; conditions: Homo sapiens; BT-20 (Breast), 72 hours, single agent; read-out: Example 3 IC50
OVCAR-3 = experiment: Cancer cell panel, cell viability (resazurin): Ovarian, OVCAR-3; type: cell-based; conditions: Homo sapiens; OVCAR-3 (Ovarian), 72 hours, single agent; read-out: Example 3 IC50
SK-MEL-24 = experiment: Cancer cell panel, cell viability (resazurin): Melanoma, SK-MEL-24; type: cell-based; conditions: Homo sapiens; SK-MEL-24 (Melanoma), 72 hours, single agent; read-out: Example 3 IC50
H23 = experiment: Cancer cell panel, cell viability (resazurin): NSCLC, H23; type: cell-based; conditions: Homo sapiens, NCI-H23, 72 hours, single agent, read-out: Example 3 IC50
H1975 = experiment: Cancer cell panel, cell viability (resazurin): NSCLC, H1975; type: cell-based; conditions: Homo sapiens, NCI-H1975, 72 hours, single agent, read-out: Example 3 IC50
Experimental: as §1, §2

Caki-2 = experiment: Cancer cell panel, cell viability (resazurin): Renal, Caki-2; type: cell-based; conditions: Homo sapiens; Caki-2 (Renal), 72 hours, single agent; read-out: Example 3 IC50
Experimental: as §1, §2

Caki-1 = experiment: Cancer cell panel, cell viability (resazurin): Renal, Caki-1; type: cell-based; conditions: Homo sapiens; Caki-1 (Renal), 72 hours, single agent; read-out: Example 3 IC50
EOL-1 = experiment: Cancer cell panel, cell viability (resazurin): Leukemia, EOL-1; type: cell-based; conditions: Homo sapiens, EOL1; EOL-1 (Leukemia), 72 hours, single agent; read-out: Example 3 IC50
Experimental: as §1, §2

H2122 = experiment: Cancer cell panel, cell viability (resazurin): NSCLC, H2122; type: cell-based; conditions: Homo sapiens, NCI-H2122, 72 hours, single agent, read-out: Example 3 IC50
T47D = experiment: Cancer cell panel, cell viability (resazurin): Breast, T47D; type: cell-based; conditions: Homo sapiens, 72 hours, single agent, read-out: Example 3 IC50
MeWO = experiment: Cancer cell panel, cell viability (resazurin): Melanoma, MeWO; type: cell-based; conditions: Homo sapiens, 72 hours, single agent, read-out: Example 3 IC50
Experimental: as §1, §2

NAMALWA = experiment: Cancer cell panel, cell viability (resazurin): Burkitt's Lymphoma, NAMALWA; type: cell-based; conditions: 72 hours, single agent, read-out: Example 3 IC50
Experimental: as §1, §2

IC50 (LoVo): 170 nM
IC50 (Caov-3): 50 nM
IC50 (U87MG): 1120 nM
IC50 (BT-474): 338 nM
IC50 (HL60): 261 nM
IC50 (RPMI8226): 233 nM
IC50 (BxPC3): 3600 nM
Ki (purified CK2α enzyme): < 2.5 nM
IC50 (U266): > 10000 nM
IC50 (A2780): 527 nM
IC50 (Ramos): 312 nM
IC50 (K562): 463 nM
IC50 (DLD-1): 572 nM
IC50 (Panc-1): 539 nM
IC50 (LnCap): 420 nM
IC50 (Raji): 249 nM
IC50 (HCT116): 356 nM
IC50 (MDA-MB-157): 447 nM
IC50 (A375): 218 nM
IC50 (BT-20): 98 nM
IC50 (OVCAR-3): 42 nM
IC50 (SK-MEL-24): 1410 nM
IC50 (H23): 575 nM
IC50 (H1975): 387 nM
IC50 (Caki-2): 669 nM
IC50 (Caki-1): 171 nM
IC50 (EOL-1): 138 nM
IC50 (H2122): 227 nM
IC50 (T47D): 861 nM
IC50 (MeWO): 263 nM
IC50 (NAMALWA): 206 nM
Structure (SMILES): C[S@+]([O-])Cc1cc(Nc2cc(NC3CC3)n3ncc(C#N)c3n2)ccc1Cl [Example 3, (S)(+)-5-((4-Chloro-3-((methylsulfinyl)methyl)phenyl)amino)-7-(cyclopropylamino)pyrazolo[1,5-a]pyrimidine-3-carbonitrile]
